Test results reported in ChEMBL document CHEMBL1151013, “The chemical evolution of N,N-dimethyl-2-[5-(1,2,4-triazol-4-yl)-1H-indol-3-yl]ethylamine (L-741,604) and analogues: Potent and selective agonists for 5-HT1D receptors” (Bioorg Med Chem Lett, 1996).

Tests used:
Canis familiaris = species on record: Canis familiaris; assay: The plasma concentration producing half maximal fall in carotid flow in dogs; format: functional, organism-based; settings: Canis lupus familiaris
[1] = Half-life in rat plasma was determined; format: ADME, organism-based
[2] = Plasma clearance in rat was determined; format: ADME, organism-based; settings: read-out: Clp
[3] = Maximum concentration in rat plasma was determined; format: ADME, organism-based
[4] = Time required to reach maximum concentration in rat plasma; format: ADME, organism-based
Rattus norvegicus [5] = species on record: Rattus norvegicus; assay: Maximum fall in carotid flow in rat; format: organism-based; settings: in vivo
Rattus norvegicus [6] = species on record: Rattus norvegicus; assay: Inhibition of extravation produced in the dura meter by electrical stimulatio of trigeminal ganglion in rat; format: functional, organism-based
Oryctolagus cuniculus = species on record: Oryctolagus cuniculus; assay: Compound was tested for agonist potency from plots of percentage 5-HT (1 uM) response against concentration of the agonist in white rabbit saphenous vein; format: functional, organism-based

| Compound | IC50 (Canis familiaris) | half-life [1] | clearance [2] | Cmax [3] | Tmax [4] | Carotid Flow Decrease (Rattus norvegicus [5]) | IC50 (Rattus norvegicus [6]) | EC50 (Oryctolagus cuniculus) |
| --- | --- | --- | --- | --- | --- | --- | --- | --- |
| CNS(=O)(=O)Cc1ccc2[nH]cc(CCN(C)C)c2c1 | 48.6 nM | 1.1 h | 69 mL/min/kg | 74 ng/mL | 4 h | 44% |  |  |
| CN(C)CCc1c[nH]c2ccc(-n3cnnc3)cc12 |  | 1.3 h | 37 mL/min/kg | 83 ng/mL | 1 h | 27% | 13 nM | 32 nM |
| CN1CCC(c2c[nH]c3ccc(-n4cnnc4)cc23)CC1 | 6.9 nM | 2 h | 48 mL/min/kg | 53 ng/mL | 3 h | 20% | 69 nM | 39 nM |
| CN(C)CCc1c[nH]c2ccc(-n3cncn3)cc12 |  |  |  |  |  |  |  | 62 nM |
| CN(C)CCc1c[nH]c2ccc(Cn3cncn3)cc12 [RIZATRIPTAN] |  | 0.8 h | 79 mL/min/kg | 271 ng/mL | 0.75 h | 76% |  |  |
